Source: patent US10966427B2, “3-pyridyl oxyanilide compound and use therefor” (SUMITOMO CHEMICAL COMPANY, LIMITED, priority 2017, dated 2021)

How the values were obtained:
Assay type in all cases: in vivo
Digitaria ciliaris = experiment: Test Examples 2 and 5, Comparative Example 1: foliar spray herbicide efficacy; conditions: second to third leaf stages, sprayed, 63 g/ha; for Herbicide efficacy against digitaria ciliaris: greenhouse 16 days
Procedure: Here “untreated group” represents a group where a similar treatment procedure to that of the treated group except not using the test compound is done. One point one nine (1.19) mg of the present compound was dissolved 1 mL of a DMF solution containing 2% polyoxyethylene sorbitan monolaurate, and then 18 mL of water was added thereto. The mixture was sprayed uniformly to Digitaria ciliaris in the second to third leaf stages so that the applied dose was made 63 g/ha. Thereafter, the plants were cultivated in a greenhouse for 7 days, and the herbicide efficacy was assessed. […] One point one nine (1.19) mg of the present compound was dissolved 1 mL of a DMF solution containing 2% polyoxyethylene sorbitan monolaurate, and then 18 mL of water was added thereto. The mixture was sprayed uniformly to Digitaria ciliaris in the second to third leaf stages so that the applied dose was made 63 g/ha. Thereafter, the plants were cultivated in a greenhouse for 16 days, and the herbicide efficacy was assessed. The test was conducted similarly to the method described in Test Example 5 except for using a compound represented by the following formula (A): […]

soybean = experiment: Test Examples 4 and 5, Comparative Example 1: foliar spray phytotoxicity against useful plants; conditions: second to third leaf stages, sprayed, 63 g/ha; for Phytotoxicity against Soybean: greenhouse 16 days
Procedure: Here “untreated group” represents a group where a similar treatment procedure to that of the treated group except not using the test compound is done. One point one nine (1.19) mg of the present compound was dissolved 1 mL of a DMF solution containing 2% polyoxyethylene sorbitan monolaurate, and then 18 mL of water was added thereto. The mixture was sprayed uniformly to soybean in the second to third leaf stages so that the applied dose was made 63 g/ha. Thereafter, the plants were cultivated in a greenhouse for 7 days, and the phytotoxicity against useful plants was assessed. […] Also, 1.19 mg of the present compound was dissolved 1 mL of a DMF solution containing 2% polyoxyethylene sorbitan monolaurate, and then 18 mL of water was added thereto. The mixture was sprayed uniformly to soybean in the second to third leaf stages so that the applied dose was made 63 g/ha. Thereafter, the plants were cultivated in a greenhouse for 16 days, and the phytotoxicity against useful plants was assessed. The test was conducted similarly to the method described in Test Example 5 except for using a compound represented by the following formula (A): […]

Leptochloa chinensis = experiment: Test Example 3: pot spray followed by flooding, herbicide efficacy; conditions: first leaf stage, pot sprayed, 250 g/ha, flooded to 3 cm next day, greenhouse 20 days
Procedure: Here “untreated group” represents a group where a similar treatment procedure to that of the treated group except not using the test compound is done. Leptochloa chinensis seeds were seeded into a pot having a diameter of 9 cm and a death of 10 cm that was filled with steam-sterilized soil, and the plants were cultivated in a greenhouse until an emergence of the first leaf stage. Next, 4.75 mg of the present compound was dissolved into a 1 mL of DMF solution containing 2% polyoxyethylene sorbitan monolaurate, and then 18 mL of water was added thereto. The mixture was sprayed uniformly to the pot so that the applied dose was made 250 g/ha. After the pot was flooded to a depth of 3 cm on next day, the plants were cultivated in a greenhouse for 20 days, and the herbicide efficacy was assessed.

Echinochloa crus-galli = experiment: Test Example 1: foliar spray herbicide efficacy; conditions: second to third leaf stages, sprayed, 63 g/ha, greenhouse for days (number not given)
Procedure: Here “untreated group” represents a group where a similar treatment procedure to that of the treated group except not using the test compound is done. One point one nine (1.19) mg of the present compound was dissolved 1 mL of a DMF solution containing 2% polyoxyethylene sorbitan monolaurate, and then 18 mL of water was added thereto. The mixture was sprayed uniformly to Echinochloa crus-galli in the second to third leaf stages so that the applied dose was made 63 g/ha. Thereafter, the plants were cultivated in a greenhouse for days, and the herbicide efficacy was assessed.

Row | SMILES | Herbicide efficacy against digitaria ciliaris (Digitaria ciliaris) | Phytotoxicity against Soybean (soybean) | score as herbicide efficacy (Digitaria ciliaris; Digitaria ciliaris, greenhouse 7 days) | score as herbicide efficacy (Leptochloa chinensis) | score as phytotoxicity (soybean; soybean, greenhouse 7 days) | score as herbicide efficacy (Echinochloa crus-galli)
1 | Cn1c(C(F)(F)F)cc(=O)n(-c2cc(Oc3cccnc3OCC(=O)Oc3ccccc3)c(Cl)cc2F)c1=O [Compound (A), reference compound] | 10 (100% of herbicide efficacy) | 10 (100% of phytotoxicity) |  |  |  | 
2 | CCOC(=O)COc1ncccc1Oc1cc(NC(=O)COc2ncccc2Oc2cc(-n3c(=O)cc(C(F)(F)F)n(C)c3=O)c(F)cc2Cl)c(F)cc1Cl [Present compound] | 10 (100% of herbicide efficacy) | 1 (10% to 19% of phytotoxicity) | 9 (90% to 99% of herbicide efficacy) | 10 (100% of herbicide efficacy) | 2 (20% to 29% of phytotoxicity) | 9 (90% to 99% of herbicide efficacy)
